Data published in patent US10029986B2, “Alkynyl pyridine-substituted amide compound and pesticide” (NISSAN CHEMICAL INDUSTRIES, LTD., priority 2014, dated 2018).

Columns and labels:
[1] = system: Barber pole worm (Haemonchus contortus); experiment: Insecticidal test against Barber pole worm (eggs, 96 well plate); type: in vivo; details: 96 h, test solution B 100 ppm, 10 μl per well, 25° C. dark, 4 days after treatment, read-out: efficacy (unhatched eggs and inactive larvae relative to non-treated)
Experimental: (§1) Compounds of the present invention were dissolved in dimethyl sulfoxide to prepare 1 wt % solutions. Then, distilled water was added to dilute the solutions to the prescribed concentration (100 ppm), and the obtained solutions were used in the following the Test Examples 9 to 12. 60 μl of a potato dextrose 1% agar medium was added to each well of a 96 well plate, and 30 μl of sterilized water containing eggs of Barber pole worm (Haemonchus contortus) (10 eggs/3 μl) was added to each well. Further, 10 μl per well of test solution B of the compounds of the present invention was added, and the plate was left at rest at 25° C. under dark conditions.

[2] = system: Blumeria graminis f. sp. tritici; experiment: Test on the preventive effect against wheat powdery mildew; type: in vivo; details: 168 h, test solution A 500 ppm, 5 ml per pot, wheat 1.3-leaf stage, 7 days after inoculation
Experimental: (§2) Compounds of the present invention were dissolved in a solvent for emulsion (a mixture of Sorpol (registered trademark) 3005XL (manufactured by Toho Chemical Industry Co., Ltd.): N-methylpyrrolidone: Solvesso (registered trademark) 200 (manufactured by ExxonMobil Chemical) in a ratio of 1:5:2) to prepare 20 wt % emulsifiable concentrates. Then, distilled water was added to dilute the emulsifiable concentrates to the prescribed concentration (500 ppm), and the obtained solutions were used in the following the Test Examples 1 to 8. Wheat (varieties: Norin 61) was seeded in 90 cm^3 plastic pot, and at the 1.3-leaf stage, 5 ml per pot of test solution A of the compounds of the present invention were applied. One day after treatment, the pot was placed in an air-conditioned greenhouse (20° C.), and conidium of Blumeria graminis f. sp. tritici was inoculated to the wheat. 7 days after, the proportion of the formed lesion in the inoculated leaves were measured to calculate the control value in accordance with the same formula as in the Test Example 1. The test was carried out in duplicate.

[3] = system: Southern root-knot nematode (Meloidogyne incoqnita); experiment: Insecticidal test against Southern root-knot nematode (eggs, 96 well plate); type: in vivo; details: 96 h, test solution B 100 ppm, 10 μl per well, 25° C. dark, 4 days after treatment, read-out: efficacy (unhatched eggs + inactive larvae relative to non-treated)
Experimental: as §1, with “Southern root-knot nematode (Meloidogyne incoqnita)” for “Barber pole worm (Haemonchus contortus)”

[4] = system: Phaeosphaeria nodorum (Synonym: Septoria nodorum); experiment: Test on the preventive effect against wheat glume blotch; type: in vivo; details: Parastagonospora nodorum, 144 h; test solution A 500 ppm, 5 ml per pot, wheat 1.3-leaf stage, 2 days inoculation chamber then 6 days at 20° C.
Experimental: as §2, with “Wheat (varieties: Haruyutaka) was seeded” for “Wheat (varieties: Norin 61) was seeded”, “and at 1.3-leaf stage,” for “and at the 1.3-leaf stage,”, “present invention was applied. One” for “present invention were applied. One”, “after treatment, a suspension of conidium of Phaeosphaeria nodorum (Synonym: Septoria nodorum) was sprayed to the wheat, and the pot was left in the inoculation chamber at 20° C. under humidity of 100% RH for 2 days. Then, the pot” for “after treatment, the pot”, “greenhouse (20° C.) for 6 days. The proportion of” for “greenhouse (20° C.), and conidium of Blumeria graminis f. sp. tritici was inoculated to the wheat. 7 days after, the proportion of”

[5] = system: Botrytis cinerea; experiment: Test on the preventive effect against cucumber gray mold (mycelium inoculation); type: in vivo; details: 48 h, test solution A 500 ppm, 5 ml per pot, cucumber cotyledon, agar block inoculation, 2 days at 20° C.
Experimental: Compounds of the present invention were dissolved in a solvent for emulsion (a mixture of Sorpol (registered trademark) 3005XL (manufactured by Toho Chemical Industry Co., Ltd.): N-methylpyrrolidone: Solvesso (registered trademark) 200 (manufactured by ExxonMobil Chemical) in a ratio of 1:5:2) to prepare 20 wt % emulsifiable concentrates. Then, distilled water was added to dilute the emulsifiable concentrates to the prescribed concentration (500 ppm), and the obtained solutions were used in the following the Test Examples 1 to 8. Cucumber (varieties: Sagami Hanjiro) was seeded in 90 cm^3 plastic pot, and at the cotyledon stage, 5 ml per pot of test solution A of the compounds of the present invention was applied. On the next day, the pot was transferred in a plastic container, and an agar blocks (diameter: 5 mm) containing Botrytis cinerea which was preliminarily cultivated in a PDA medium was inoculated on the cotyledon of the cucumber treated with the solution. After the inoculation, the plastic container was covered with a plastic sheet, then placed at 20° C. and humidified for 2 days. Thus the proportion of the formed lesion in the inoculated leaves were measured to calculate the control value in accordance with the same formula as in the Test Example 1. The test was carried out in duplicate.

[6] = system: Asperaillus niger; experiment: Test on the antifungal activity against Asperaillus niger; type: cell-based; details: 48 h; test solution B 100 ppm, 10 μl per well, 96 well plate, 25° C. dark, 2 days after treatment; read-out: efficacy (flora area ratio relative to non-treated well)
Experimental: as §1, with “spores” for “eggs”, “Asperaillus niger” for “Barber pole worm (Haemonchus contortus)”, “spores/3” for “eggs/3”, “conditions. 2 days after treatment, the flora area ratio (%) was determined to calculate the efficacy (%) relative to the non-treated well in accordance with the following formula. Efficacy (%)=[1−(flora area ratio in treated plot/flora area ratio in non-treated well)]×100” for “conditions.”

SMILES | pest or weed control at 100 µg/mL [1] [%] | pest or weed control at 500 µg/mL [2] [%] | pest or weed control at 100 µg/mL [3] [%] | pest or weed control at 500 µg/mL [4] [%] | pest or weed control at 500 µg/mL [5] [%] | inhibition of growth at 100 µg/mL [6] [%]
O=C(NCC(c1ncc(C#CC2CC2)cc1Cl)C1CC1)c1cccnc1C(F)F (stereo not drawn) [3-008] | ≥ 50 | ≥ 70 | ≥ 50 | ≥ 70 | ≥ 70 | ≥ 50
Cc1nc(C(F)F)c(C(=O)NCC(C)c2ncc(C#CC3CC3)cc2Cl)s1 (stereo not drawn) [9-002] | ≥ 50 | ≥ 70 |  | ≥ 70 | ≥ 70 | ≥ 50
O=C(NCCc1ncc(C#CC2CC2)cc1Cl)c1cccnc1C(F)F [3-001, N-[2-[3-chloro-5-(cyclopropylethynyl)pyridin-2-yl]ethyl]-2-(difluoromethyl)nicotinamide] | ≥ 50 | ≥ 70 | ≥ 50 | ≥ 70 | ≥ 70 | ≥ 50
Cn1cc(C(=O)NCCc2ncc(C#CC3CC3)cc2Cl)c(C(F)F)n1 [8-001] | ≥ 50 | ≥ 70 | ≥ 50 | ≥ 70 | ≥ 70 | ≥ 50
CC(CNC(=O)c1cn(C)nc1C(F)F)c1ncc(C#CC2CC2)cc1Cl (stereo not drawn) [8-007] | ≥ 50 | ≥ 70 | ≥ 50 | ≥ 70 | ≥ 70 | ≥ 50
Cn1cc(C(=O)NCC2(c3ncc(C#CC4CC4)cc3Cl)CC2)c(C(F)F)n1 [8-018, N-[[1-[3-chloro-5-(cyclopropylethynyl)pyridin-2-yl]cyclopropyl]methyl]-3-difluoromethyl-1-methyl-1H-pyrazole-4-carboxamide] | ≥ 50 | ≥ 70 | ≥ 50 | ≥ 70 | ≥ 70 | 
COC(c1ncc(C#CC2CC2)cc1Cl)C(C)NC(=O)c1nccnc1C(F)(F)F (stereo not drawn) [4-004] | ≥ 50 | ≥ 70 |  | ≥ 70 | ≥ 70 | 
CC(CNC(=O)c1cccnc1C(F)F)c1ncc(C#CC2CC2)cc1Cl (stereo not drawn) [3-006] | ≥ 50 | ≥ 70 | ≥ 50 | ≥ 70 | ≥ 70 | ≥ 50
COC(=O)C(CNC(=O)c1cn(C)nc1C(F)F)c1ncc(C#CC2CC2)cc1Cl (stereo not drawn) [8-022, 2-[3-chloro-5-(cyclopropylethynyl)pyridin-2-yl]-3-(3-difluoromethyl-1-methyl-1H-pyrazole-4-carboxamide)propionic acid methyl ester] |  | ≥ 70 |  | ≥ 70 | ≥ 70 | 
CC(Cc1ncc(C#CC2CC2)cc1Cl)NC(=O)c1cn(C)nc1C(F)F (stereo not drawn) [8-024, N-[2-[3-chloro-5-(cyclopropylethynyl)pyridin-2-yl]-1-methylethyl]-3-difluoromethyl-1-methyl-1H-pyrazole-4-carboxamide] |  | ≥ 70 |  | ≥ 70 | ≥ 70 | 
CSC(CNC(=O)c1cn(C)nc1C(F)F)c1ncc(C#CC2CC2)cc1Cl (stereo not drawn) [8-020, N-[2-[3-chloro-5-(cyclopropylethynyl)pyridin-2-yl]-2-(methylthio)ethyl]-3-difluoromethyl-1-methyl-1H-pyrazole-4-carboxamide] | ≥ 50 | ≥ 70 |  |  | ≥ 70 | ≥ 50
CC#Cc1cnc(CCNC(=O)c2ccccc2C(F)(F)F)c(Cl)c1 [1-001, N-[2-[3-chloro-5-(1-propynyl)pyridin-2-yl]ethyl]-2-(trifluoromethyl)benzamide] | ≥ 50 | ≥ 70 | ≥ 50 | ≥ 70 | ≥ 70 | 
Cn1cc(C(=O)NCCc2ncc(C#CC(C)(C)C)cc2Cl)c(C(F)F)n1 [8-002] | ≥ 50 | ≥ 70 |  | ≥ 70 | ≥ 70 | ≥ 50
CC(NC(=O)c1ccccc1C(F)(F)F)C(OCc1ccccc1)c1ncc(C#CC2CC2)cc1Cl (stereo not drawn) [1-031, N-[2-benzyloxy-2-[3-chloro-5-(cyclopropylethynyl)pyridin-2-yl]-1-methylethyl]-2-(trifluoromethyl)benzamide] |  | ≥ 70 | ≥ 50 | ≥ 70 | ≥ 70 | 
CC(Cc1ncc(C#Cc2ccccc2)cc1Cl)NC(=O)c1cn(C)nc1C(F)F (stereo not drawn) [8-027] |  | ≥ 70 |  | ≥ 70 | ≥ 70 | 
Cn1cc(C(=O)NCC(c2ncc(C#CC3CC3)cc2Cl)C2CC2)c(C(F)F)n1 (stereo not drawn) [8-009] | ≥ 50 | ≥ 70 |  | ≥ 70 | ≥ 70 | ≥ 50
O=C(NCC(c1ncc(C#CC2CC2)cc1Cl)C1CC1)c1ccccc1C(F)(F)F (stereo not drawn) [1-009] | ≥ 50 | ≥ 70 | ≥ 50 | ≥ 70 |  | ≥ 50
